Measurements reported in patent US9073961B2, “Substitution derivatives of N6 -benzyladenosine-5′-monophosphate, methods of preparation thereof, use thereof as medicaments, and therapeutic preparations containing these compounds” (UNIVERZITA PALACKEHO V OLOMOUCI, priority 2010, dated 2015).
pEC50: −log10 of the molar value.

What was measured:
MCF-7 (breast carcinoma) = experiment: Calcein AM cytotoxicity assay, MCF7; type: cell-based; conditions: 72 hours incubation
From the text: (§1) Because toxic compounds negatively influence metabolic processes in cells, many standard cytotoxicity assays are based on measurement of metabolisation rate of various artificial substrates. Resulting product is then quantified e.g. by means of spectrometry. The assays can be easily modified for use in 96-well plates. For evaluation of cytotoxic effect of the novel substituted 9-substituted cytokinin derivatives of this invention, a microtiter assay based on quantification of metabolisation of Calcein AM was used. The assay is widely used in drug screening programs and in chemosensitivity testing. In the living cells, Calcein AM is enzymatically hydrolysed and accumulation of resulting calcein is manifested by green fluorescence.
(§2) In the routine screening the following cell lines have been used: CEM (T-lymphoblastoid leukemia), HL-60 (promyelocytic leukemia), K-562 (human erythroleukemia), MCF-7 (breast carcinoma), HOS (human osteogenic sarcoma), and G-361 (human malignant melanoma). Normal human fibroblasts BJ were used as a control for routine screening of the compounds. The cells were kept in Nunc/Corning 80 cm^2 plastic bottles and grown in cell culture medium (DMEM containing 5 g/l glucose, 2 mM glutamine, 100 U/ml penicilline, 100 μg/ml streptomycine, 10% fetal bovine serum and sodium hydrogencarbonate), the compounds were prepared according to the procedure of the present invention.
(§3) The cell suspensions were prepared and diluted according to the particular cell type and the expected target cell density (2.500-30.000 cells per well based on cell growth characteristics) and pippetted (80 μl) into 96-well plates. Inoculates were allowed a pre-incubation period of 24 hours at 37° C. and 5% CO2 for stabilisation. Tested compound was added in total volume of 20 μl of water at time zero. Usually, test compound was evaluated at six 3-fold dilutions. In routine testing, the highest concentration tested was 166.7 μM. All drug concentrations were tested in triplicates. Incubations of cells with the test compounds lasted for 72 hours at 37° C., in 5% CO2 atmosphere and 100% humidity. At the end of incubation period Calcein AM in PBS was added into final concentration of 1 μg/ml. After another 1 hour of incubation fluorescence (FD) was measured with the Labsystem FIA Reader Fluoroscan Ascent (Microsystems). Tumor cell survival (TCS) was estimated using the following equation: […]=(FDdrug exposed well/FDcontrol well)×100%. The GI50 value, the drug concentration causing 50% reduction of esterase activity, was calculated from the obtained dose response curves (FIG. 1).
(§4) Cytoxicity of novel compounds was tested on panel of cell lines of different histogenetic and species origin (Table 3). […] The effective novel derivatives killed tumour cells in concentrations close to 0.1-50 μM.

Human lymphocytes = experiment: Immunosuppressive activity, 3H-thymidine incorporation in concanavalin A activated lymphocytes; type: cell-based; conditions: 72 hours, [3H]-TdR incorporation, read-out: Human lymphocytes ED50
From the text: One of the most important parameters of specific cellular immunity is the proliferative response of lymphocytes to antigens or polyclonal mitogens. The majority of normal mammalian peripheral lymphocytes comprise resting cells. Antigens or nonspecific polyclonal mitogens have the capacity to activate lymphoid cells and this is accompanied by dramatic changes of intracellular metabolism (mitochondrial activity, protein synthesis, nucleic acids synthesis, formation of blastic cells and cellular proliferation). […] Variety of in vitro assays was developed to measure proliferative response of lymphocytes. The most commonly used is ^3H-thymidine incorporation method.
During cell proliferation, DNA has to be replicated before the cell is divided into two daughter cells. This close association between cell doublings and DNA synthesis is very attractive for assessing cell proliferation. If labelled DNA precursors are added to the cell culture, cells that are about to divide incorporate the labelled nucleotide into their DNA. Traditionally, those assays usually involve the use of radiolabelled nucleosides, particularly tritiated thymidine ([^3H]-TdR). The amount of [^3H]-TdR incorporated into the cellular DNA is quantified by liquid scintillation counting.
Human heparinized peripheral blood was obtained from healthy volunteers by cubital vein punction. The blood was diluted in PBS (1:3) and mononuclear cells were separated by centrifugation in Ficoll-Hypaque density gradient (Pharmacia, 1.077 g/ml) at 2200 rpm for 30 minutes. Following centrifugation, lymphocytes were washed in PBS and resuspended in cell culture medium (RMPI 1640, 2 mM glutamine, 100 U/ml penicillin, 100 μg/ml streptomycin, 10% fetal calf serum and sodium bicarbonate).
The cells were diluted at target density of 1.100.000 cells/ml and were added by pipette (180 μl) into 96-well microtiter plates. Four-fold dilutions of the intended test concentration were added at time zero in 20 μl aliquots to the microtiter plate wells. Usually, test compound was evaluated at six 4-fold dilutions. In routine testing, the highest well concentration was 266.7 μM. All drug concentrations were examined in duplicates. All wells with exception of unstimulated controls were activated with 50 μl of concanavalin A (25 μg/ml). Incubations of cells with test compounds lasted for 72 hours at 37° C., in 5% CO2 atmosphere and 100% humidity. At the end of incubation period, the cells were assayed by using the [^3H]-TdR:
Cell cultures were incubated with 0.5 μCi (20 μl of stock solution 500 μCi/ml) per well for 6 hours at 37° C. and 5% CO2. The automated cell harvester was used to lyse cells in water and adsorb the DNA onto glass-fiber filters in the format of microtiter plate. The DNA incorporated [^3H]-TdR was retained on the filter while unincorporated material passes through. The filters were dried at room temperature overnight, sealed into a sample bag with 10-12 ml of scintillant. The amount of [^3H]-TdR present in each filter (in cpm) was determined by scintillation counting in a Betaplate liquid scintillation counter. The effective dose of immunosuppressant (ED) was calculated using the following equation: ED=(CCPMdrug exposed well/mean CCPMcontrol wells)×100%. The ED50 value, the drug concentration inhibiting proliferation of 50% of lymphocytes, was calculated from the obtained dose response curves.
To evaluate immunosuppressive activity of substituted adenines, their ability to inhibit polyclonal mitogen induced proliferation of normal human lymphocytes was analyzed (Table 4). […] Effective immunosuppressive dose of new derivatives under in vitro conditions was close to 10-40 μM.

[1] = system: CEM (T-lymphoblastoid leukemia); experiment: Calcein AM cytotoxicity assay, CEM; type: cell-based; conditions: 72 hours incubation, Calcein AM
From the text: as §1, §2, §3, §4

[2] = system: HL-60 (promyelocytic leukemia); experiment: Calcein AM cytotoxicity assay, HL60; type: cell-based, human; conditions: 72 hours incubation
From the text: as §1, §2, §3, §4

[3] = system: HOS (human osteogenic sarcoma); experiment: Calcein AM cytotoxicity assay, HOS; type: cell-based; conditions: 72 hours incubation
From the text: as §1, §2, §3, §4

[4] = system: Normal human fibroblasts BJ; experiment: Calcein AM cytotoxicity assay, BJ; type: cell-based; conditions: 72 hours incubation
From the text: as §1, §2, §3, §4

[5] = system: cytokinin-dependent tobacco callus Nicotiana tabacum L. cv. Wisconsin 38; experiment: Growth of cytokinin-dependent tobacco callus; type: cell-based; conditions: for Activity (%) [10^−5 mol · l^−1 KR = 100%]: at concentration with highest activity, relative to control cytokinin; for Concentration with highest activity: tobacco callus fresh weight after four weeks
Method: Cytokinin effect of newly prepared derivatives was tested using cytokinin-dependent tobacco callus. The cytokinin-dependent tobacco callus Nicotiana tabacum L. cv. Wisconsin 38 was maintained at 25° C. in darkness on modified MS medium, containing per 1 liter: 4 μmol of nicotinic acid, 2.4 μmol of pyridoxine hydrochloride, 1.2 μmol of thiamine, 26.6 μmol of glycine, 1.37 μmol of glutamine, 1.8 μmol of myo-inositol, 30 g of sucrose, 8 g of agar, 5.37 μmol of NAA and 0.5 μmol of the compound tested. Subcultivation was carried out every three weeks. Fourteen days before the bioassay, the callus tissue was transferred to the media without 6-benzylaminopurine. The biological activity was determined from the increase of the fresh callus weight after four weeks of cultivation. Five replicates were prepared for each concentration of the compound tested and the entire test was repeated twice. […] The compounds to be tested were dissolved in dimethylsulfoxide (DMSO) and the solution brought up to 10^−3 M with distilled water. […] The stimulatory activity was calculated from the dose-dependent fresh weight callus growth curves.
From the obtained data, the concentration with the highest activity was selected for each compound tested. Relative activity of the compound at this concentration was calculated (Table 5). […]

[6] = system: K-562 (human erythroleukemia); experiment: Calcein AM cytotoxicity assay, K-562; type: cell-based; conditions: 72 hours incubation
From the text: as §1, §2, §3, §4

[7] = system: G-361 (human malignant melanoma); experiment: Calcein AM cytotoxicity assay, G-361; type: cell-based; conditions: 72 hours incubation
From the text: as §1, §2, §3, §4

For `O=P(O)(O)OC[C@H]1O[C@@H](n2cnc3c(NCc4cccc(Cl)c4)ncnc32)[C@H](O)[C@@H]1O` [Compound 5, 6-(3-chlorobenzylamino)purine riboside-5′-monophosphate], the GI50 (MCF-7 (breast carcinoma)) was over 167 µM, the pEC50 (Human lymphocytes) was 5.49 and the GI50 [1] was 1.6 µM. The GI50 [2] was 0.75 µM, the GI50 [3] was over 167 µM and the GI50 [4] was over 167 µM. The “Activity (%) [10^−5 mol · l^−1 KR = 100%]” value (from here on “Activity (%)”) [5] was 109 ± 5%, the “Concentration with highest activity” value [5] was 10^−5 mol · l^−1 and the GI50 [6] was 30.4 µM.
In the case of `O=P(O)(O)OC[C@H]1O[C@@H](n2cnc3c(NCc4ccc(Cl)cc4)ncnc32)[C@H](O)[C@@H]1O` [Compound 6, 6-(4-chlorobenzylamino)purine riboside-5′-monophosphate], the GI50 (MCF-7 (breast carcinoma)) was over 167 µM, the pEC50 (Human lymphocytes) was 5.48 and the GI50 [1] was 6.5 µM. The GI50 [2] was 5.3 µM, the GI50 [3] was over 167 µM and the GI50 [4] was over 167 µM. It also gave a GI50 [6] of 16.1 µM.
For `COc1ccc(O)c(CNc2ncnc3c2ncn3[C@@H]2O[C@H](COP(=O)(O)O)[C@@H](O)[C@H]2O)c1` [Compound 29, 6-(2-hydroxy-5-methoxybenzylamino)purine riboside-5′-monophosphate], the GI50 (MCF-7 (breast carcinoma)) was 21 µM, the GI50 [1] was 0.9 µM and the GI50 [2] was 0.54 µM. It also gave a GI50 [7] of 12.3 µM, a GI50 [3] of 6.4 µM and a GI50 [4] of 87.9 µM. It also gave a GI50 [6] of 15.4 µM.
Compound `O=P(O)(O)OC[C@H]1O[C@@H](n2cnc3c(NCc4cccc(Cl)c4O)ncnc32)[C@H](O)[C@@H]1O` [2-hydroxy-3-chlorobenzylamino, 6-(2-hydroxy-3-chlorobenzylamino)purine ribo side-5′-monophosphate] has a pEC50 (Human lymphocytes) of 5.49.
In the case of `O=P(O)(O)OC[C@H]1O[C@@H](n2cnc3c(NCc4cc(F)ccc4O)ncnc32)[C@H](O)[C@@H]1O` [Compound 48, 6-(2-hydroxy-5-fluorobenzylamino)purine riboside-5′-monophosphate], the GI50 (MCF-7 (breast carcinoma)) was 16 µM, the GI50 [1] was 0.5 µM and the GI50 [2] was 0.53 µM. For the same compound, the GI50 [7] was 10.7 µM, the GI50 [3] was 9.1 µM and the GI50 [4] was 58.7 µM. The GI50 [6] was 13.4 µM.
`Cc1ccccc1CNc1ncnc2c1ncn2[C@@H]1O[C@H](COP(=O)(O)O)[C@@H](O)[C@H]1O` [Compound 12, 6-(2-methylbenzylamino)purine riboside-5′-monophosphate] gave a GI50 (MCF-7 (breast carcinoma)) of over 167 µM, a pEC50 (Human lymphocytes) of 5.14 and a GI50 [1] of 14 µM. The GI50 [2] was 3.3 µM, the GI50 [3] was over 167 µM and the GI50 [4] was over 167 µM. The “Activity (%)” value [5] was 108 ± 4%, the “Concentration with highest activity” value [5] was 10^−6 mol · l^−1 and the GI50 [6] was over 167 µM.
`O=P(O)(O)OC[C@H]1O[C@@H](n2cnc3c(NCc4ccc(O)c(O)c4)ncnc32)[C@H](O)[C@@H]1O` [3,4-dihydroxybenzylamino, 6-(3,4-dihydroxybenzylamino)purine riboside-5′-monophosphate] gave a pEC50 (Human lymphocytes) of 5.03.
`O=P(O)(O)OC[C@H]1O[C@@H](n2cnc3c(NCc4ccc(F)cc4)ncnc32)[C@H](O)[C@@H]1O` [Compound 3, 6-(4-fluorobenzylamino)purine riboside-5′-monophosphate] gave a GI50 (MCF-7 (breast carcinoma)) of 14 µM, a pEC50 (Human lymphocytes) of 4.87 and a GI50 [1] of 1.5 µM. It also gave a GI50 [2] of 0.86 µM, a GI50 [3] of 20 µM and a GI50 [4] of over 167 µM. For the same compound, the GI50 [6] was 6.4 µM.
With `O=P(O)(O)OC[C@H]1O[C@@H](n2cnc3c(NCc4ccccc4Cl)ncnc32)[C@H](O)[C@@H]1O` [Compound 4, 6-(2-chlorobenzylamino)purine riboside-5′-monophosphate] the GI50 (MCF-7 (breast carcinoma)) was over 167 µM, the pEC50 (Human lymphocytes) was 5.06 and the GI50 [1] was 14.5 µM. The GI50 [2] was 1.6 µM, the GI50 [3] was over 167 µM and the GI50 [4] was over 167 µM. The “Activity (%)” value [5] was 121 ± 4%, the “Concentration with highest activity” value [5] was 10^−6 mol · l^−1 and the GI50 [6] was 64 µM.
Compound `O=P(O)(O)OC[C@H]1O[C@@H](n2cnc3c(NCc4ccccc4F)ncnc32)[C@H](O)[C@@H]1O` [Compound 1, 6-(2-fluorobenzylamino)purine riboside-5′-monophosphate] has a GI50 (MCF-7 (breast carcinoma)) of over 167 µM, a pEC50 (Human lymphocytes) of 5.20 and a GI50 [1] of 4.6 µM. The GI50 [2] was 3.2 µM, the GI50 [3] was over 167 µM and the “Activity (%)” value [5] was 100 ± 9%. The “Concentration with highest activity” value [5] was 10^−6 mol · l^−1 and the GI50 [6] was 33.2 µM.
`COc1ccc(CNc2ncnc3c2ncn3[C@@H]2O[C@H](COP(=O)(O)O)[C@@H](O)[C@H]2O)c(O)c1` [2-hydroxy-4-methoxybenzylamino, 6-(2-hydroxy-4-methoxybenzylamino)purine riboside-5′-monophosphate] gave a pEC50 (Human lymphocytes) of 5.68.
Compound `Cc1cccc(CNc2ncnc3c2ncn3[C@@H]2O[C@H](COP(=O)(O)O)[C@@H](O)[C@H]2O)c1` [Compound 13, 6-(3-methylbenzylamino)purine riboside-5′-monophosphate] has a GI50 (MCF-7 (breast carcinoma)) of over 167 µM, a pEC50 (Human lymphocytes) of 5.12 and a GI50 [1] of 19.1 µM. It also gave a GI50 [2] of 6.4 µM, a GI50 [3] of over 167 µM and a GI50 [4] of over 167 µM. The GI50 [6] was over 167 µM.
